In PMC7738856, “Inter and intra-tumor somatostatin receptor 2 heterogeneity influences peptide receptor radionuclide therapy response” (Theranostics, 2021):

Legend:
[1] = test system: NCI-H69 tumors; assay: Tumor growth and survival, NCI-H69 xenografts; type: in vivo, BALB-c/nude mice; conditions: n = 8
Experimental: (§1) Animal experiments were approved by the Animal Welfare Committee of the Erasmus MC and were conducted in accordance with European guidelines. Animal experiments included a time series for analyses of radiobiological parameters in NCI-H69 xenografts and survival cohorts with NCI-H69 or CA20948 xenografts.
(§2) BALB-c/nude mice were engrafted subcutaneously with 5 x 10^6 NCI-H69 cells in 200 µl HBSS containing 33,3% Matrigel or with 5 x 10^6 CA20948 cells in 200 µl HBSS. Mice with NCI-H69 tumors (n = 8) were injected when tumor volumes reached 697 ± 256 mm^3 and mice with CA20948 tumors (n = 9) when tumor reached 318 ± 216 mm^3. Both groups were compared to vehicle injected counterparts (n = 8 and n = 6, respectively). Tumor volumes were measured three times per week p.i. Mice were sacrificed when tumor volumes reached the humane endpoint of 2000 mm^3. Tumors were fixed in formalin for 1 day at RT and stored in 70% ethanol until they were embedded in paraffin.

[2] = test system: NCI-H69 cells; assay: 53BP1 and γH2AX foci in cells after in vitro treatment; type: cell-based
Experimental: NCI-H69 cells (ATCC) were cultured in Rosewell Park Medium Institute […] medium (RPMI-1638) (Sigma-Aldrich) supplemented with penicillin (50 units/mL), streptomycin (50 µg/mL) (Pen/Strep) and 10% fetal calf serum (FCS). CA20948 [14] cells were cultured in Dulbecco's Modified Eagle's Medium (DMEM) (Gibco) supplemented with Pen/Strep and 10% FCS. Cells were cultured at 37 °C and 5% CO2. […] NCI-H69 cells were spun down on a glass slide using a cytospin centrifuge (Rotofix 32A, Hettich) for 6 minutes at 347 g at room temperature (RT). CA20948 cells were washed and fixed on coverslips. Fixation was done using 2% paraformaldehyde (PFA) for 20 minutes at RT and samples were stained according to protocol (see below). Cells were IF stained as previously described. Briefly, tissue sections were deparaffinized as described above. Then antigen retrieval was performed by boiling slides for 20 minutes in pH 6 (for cytoplasmic antigens) or pH 9 (for nuclear antigens) antigen retrieval buffer (DAKO) and cooling down to RT. […] Tiles were stitched, thresholded and quantified using ImageJ. ImageJ was utilized to apply the same local threshold (default for DAPI, MaxEntropy for SST2) to all images in order to segment nuclei or quantify DAPI signal and quantify IF signal. Foci were quantified using the Find Maxima function.

[3] = test system: NCl-H69 tumors; assay: Ki-67 immunohistochemistry of tumor sections; type: in vivo, BALB-c/nude mice
Experimental: BALB-c/nude mice were engrafted subcutaneously with 5 x 10^6 NCI-H69 cells in 200 μl Hanks Balanced Salt Solution (HBSS) (Gibco, 14065056) containing 33,3% Matrigel (Corning, 354248). […] Organs were put in a gamma-counter for measurement of radioactive uptake and then fixed in formalin for 1 day at RT and stored in 70% ethanol until they were embedded in paraffin. Uninjected animals were used as control (n = 4). […] Secondary antibodies used are donkey-anti-rabbit IgG Alexa Fluor 594 (Thermo Fisher, A-11078; 1:500) and donkey-anti-mouse IgG Alexa Fluor 488 (Thermo Fisher; A-11005; 1:500). For immunohistochemical stainings (IHC) Ki-67 (Abcam, ab15580; 1:200) was used. Here, the secondary antibody used is Peroxidase donkey-anti-rabbit IgG (Jackson Immunoresearch, 711-035-152; 1:2000). Tissue sections of 4 μm were deparaffinized and rehydrated. Samples were then incubated in 3% H2O2 (Honeywell, 95299) in methanol (Honeywell, 32213-2.5l) for 20 minutes at RT. Slides were washed with tap water and boiled in pH 6 Antigen Retrieval buffer for 20 minutes. Slides were incubated in blocking solution (PBS 5%BSA), following with the primary antibody in blocking solution overnight at 4 °C and with the secondary antibody in blocking solution for 90 minutes at RT. […] Quantification was performed in ImageJ by using particle analysis after.

[4] = test system: CA20948 tumors; assay: Tumor growth and survival, CA20948 xenografts; type: in vivo, BALB-c/nude mice; conditions: treated CA20948 bearing mice, 30 MBq, n = 9
Experimental: as §1, §2

[5] = test system: NCI-H69 tumors; assay: TUNEL assay on tumor sections; type: in vivo, BALB-c/nude mice; conditions: 30 MBq, n = 4; for TUNEL positive areas (average): 25 fields of view per tumor
Experimental: BALB-c/nude mice were engrafted subcutaneously with 5 x 10^6 NCI-H69 cells in 200 µl Hanks Balanced Salt Solution (HBSS) (Gibco, 14065056) containing 33,3% Matrigel (Corning, 354248). […] Organs were put in a gamma-counter for measurement of radioactive uptake and then fixed in formalin for 1 day at RT and stored in 70% ethanol until they were embedded in paraffin. Uninjected animals were used as control (n = 4). Tissue sections of 4 µm were deparaffinized and rehydrated. TUNEL assay was performed using the In Situ Cell Death Detection Kit, Fluorescein (Roche, 11684795910) according to manufacturer's instructions. 53BP1 and γH2AX focus formation was imaged with a Leica SP5 confocal microscope (Leica) using Z-stack acquisition. For tile-scan analyses a LSM700 confocal microscope (Zeiss) was used. Tiles were stitched, thresholded and quantified using ImageJ.

[6] = test system: CA20948 and NCI-H69 cells; assay: In vitro uptake of radioactivity (γ-counts) in cells; type: cell-based; conditions: 1 MBq/mL, 4 h incubation, n = 3 experiments
Experimental: NCI-H69 cells (ATCC) were cultured in Rosewell Park Medium Institute […] medium (RPMI-1638) (Sigma-Aldrich) supplemented with penicillin (50 units/mL), streptomycin (50 µg/mL) (Pen/Strep) and 10% fetal calf serum (FCS). CA20948 [14] cells were cultured in Dulbecco's Modified Eagle's Medium (DMEM) (Gibco) supplemented with Pen/Strep and 10% FCS. Cells were cultured at 37 °C and 5% CO2.
NCI-H69 cells were spun down on a glass slide using a cytospin centrifuge (Rotofix 32A, Hettich) for 6 minutes at 347 g at room temperature (RT). CA20948 cells were washed and fixed on coverslips. Fixation was done using 2% paraformaldehyde (PFA) for 20 minutes at RT and samples were stained according to protocol (see below).
S4. [177Lu]Lu-DO T A -TATE uptake in SST2hi g h and SST2low NCI-H69 cells. (A) lutetium- 177 uptake measured by γ-counts in NCI-H69 and CA20948 cells after 4 hours of incubation (experiment n = 3).
**p < 0.01 (B) Representative IF images of SST2 after [ 177Lu]Lu-DOT A- TATE treatment. Arrows indicate internalization and accumulation of SST 2.
S5. Additional foci quantifications in SST2hi g h and SST2low cells. γH2AX foci quantification in SST2high and SST 2lo w NC I -H69 cells 2 days after [177Lu]Lu-DOT A -TATE treatment. Error bars indicate […]

[7] = test system: NCl-H69 xenografted mice; design: species or system BALB-c/nude mice; conditions: mouse, in vivo, iv
Experimental: BALB-c/nude mice were engrafted subcutaneously with 5 x 10^6 NCI-H69 cells in 200 µl Hanks Balanced Salt Solution (HBSS) (Gibco, 14065056) containing 33,3% Matrigel (Corning, 354248). […] Mice were sacrificed by cervical dislocation and analyzed at 1 h, 1, 2, 3, 4, 5, 7, 9, 11 and 14 days post injection (p.i.). Organs were put in a gamma-counter for measurement of radioactive uptake and then fixed in formalin for 1 day at RT and stored in 70% ethanol until they were embedded in paraffin. Uninjected animals were used as control (n = 4).
The biodistribution data were analyzed to determine the kinetics of the activity in organs and tumors. The measured activity data as a function of time were fitted with single or double exponential curves using the least-square regression method with Graphpad Prism version 5 (graphpad.com). Decisions on to use a single or a double exponential curve was based on the (corrected) Akaike's information criterion. The time-activity curves were integrated over time to determine the time-integrated activity coefficients after folding in the lutetium-177 decay function. Absorbed doses in all organs and in the tumor were calculated by using the MIRD equation with the lutetium-177 S-values for a 22 g mouse Moby phantom, kindly provided by Dr Erik Larsson.

[8] = test system: NCI-H69 tumors; assay: 53BP1 and γH2AX foci (immunofluorescence) in tumor sections; type: in vivo, BALB-c/nude mice; conditions: 2 days p.i.
Experimental: BALB-c/nude mice were engrafted subcutaneously with 5 x 10^6 NCI-H69 cells in 200 µl Hanks Balanced Salt Solution (HBSS) (Gibco, 14065056) containing 33,3% Matrigel (Corning, 354248). […] Organs were put in a gamma-counter for measurement of radioactive uptake and then fixed in formalin for 1 day at RT and stored in 70% ethanol until they were embedded in paraffin. Uninjected animals were used as control (n = 4). […] Secondary antibodies used are donkey-anti-rabbit IgG Alexa Fluor 594 (Thermo Fisher, A-11078; 1:500) and donkey-anti-mouse IgG Alexa Fluor 488 (Thermo Fisher; A-11005; 1:500). For immunohistochemical stainings (IHC) Ki-67 (Abcam, ab15580; 1:200) was used. Here, the secondary antibody used is Peroxidase donkey-anti-rabbit IgG (Jackson Immunoresearch, 711-035-152; 1:2000). Cells were IF stained as previously described. Briefly, tissue sections were deparaffinized as described above. Then antigen retrieval was performed by boiling slides for 20 minutes in pH 6 (for cytoplasmic antigens) or pH 9 (for nuclear antigens) antigen retrieval buffer (DAKO) and cooling down to RT. Tissues were permeabilized with PBS+0.5% Triton (PBS(T)) at RT and blocked with 3% BSA in PBS(T) at RT. Sections were incubated with primary antibodies overnight at 4 °C in block buffer and with secondary antibodies for 60 minutes at RT. Mounting was done using Vectashield containing DAPI (Vector labs, H-1200). 53BP1 and γH2AX focus formation was imaged with a Leica SP5 confocal microscope (Leica) using Z-stack acquisition. For tile-scan analyses a LSM700 confocal microscope (Zeiss) was used. Tiles were stitched, thresholded and quantified using ImageJ. ImageJ was utilized to apply the same local threshold (default for DAPI, MaxEntropy for SST2) to all images in order to segment nuclei or quantify DAPI signal and quantify IF signal. Foci were quantified using the Find Maxima function.

C[C@@H](O)[C@H](NC(=O)[C@@H]1CSSC[C@H](NC(=O)[C@@H](Cc2ccccc2)NC(=O)CN2CCN(CC(=O)O)CCN(CC(=O)O)CCN(CC(=O)O)CC2)C(=O)N[C@@H](Cc2ccc(O)cc2)C(=O)N[C@H](Cc2c[nH]c3ccccc23)C(=O)N[C@@H](CCCCN)C(=O)N[C@@H]([C@@H](C)O)C(=O)N1)C(=O)O [[^177Lu]Lu-DOTA-TATE, [^177Lu]Lu-DOTA-[Tyr^3]octreotate, metal not drawn]
tumor volume as % of the starting volume ([1]; 14 days p.i., then regrowth, 30 MBq single injection): 71%
median survival ([1]; treated NCI-H69 bearing mice, 30 MBq): 34 days
level of 53BP1 and γH2AX foci per cell versus non-treated cells ([2]; 1 day post treatment, 1 MBq/mL for 4 h at 37 °C): significant increase
γH2AX foci in SST2 high versus SST2 low NCI-H69 cells in vitro ([2]; 2 days after incubation, 1 MBq/mL for 4 h): significant higher number
Ki-67 positive cells ([3]; 2 days after treatment, significantly increased): 74.13%
Ki-67 positive (cycling) cells in non-apoptotic regions ([3]; all samples regardless of therapy, except 2 days after treatment): 60.96 ± 5.32%
median survival [4]: 54 days
TUNEL positive areas (average) ([5]; 4 days p.i.): 50%
TUNEL positive areas (average) ([5]; 5 days p.i.): 47%
fraction of TUNEL positive cells (average) ([5]; 14 days after treatment): 26%
uptake of radioactivity in CA20948 compared to NCI-H69 cells [6]: 3 fold
absorbed dose, kidney [7]: 3.5 ± 0.12 Gy
absorbed dose, other organs [7]: 0.22-1.48 Gy
absorbed dose, tumor [7]: 10.08 ± 0.35 Gy
γH2AX foci in SST2 high cells, treated versus non-treated SST2 high regions ([8]; n = 4): significant increase
γH2AX foci in SST2 high versus SST2 low cells in tumors from treated mice ([8]; n = 4): significantly higher number
γH2AX foci in SST2 low cells, treated versus non-treated mice ([8]; n = 4): no significant increase
increase in the number of γH2AX foci ([8]; versus NT controls): 5 fold
